Molecular target: T1, purified recombinantly expressed human SSAO (Homo sapiens, UniProt Q16853)
T1 construct: made in house
T1 sequence (Q16853 29-763 limits assumed): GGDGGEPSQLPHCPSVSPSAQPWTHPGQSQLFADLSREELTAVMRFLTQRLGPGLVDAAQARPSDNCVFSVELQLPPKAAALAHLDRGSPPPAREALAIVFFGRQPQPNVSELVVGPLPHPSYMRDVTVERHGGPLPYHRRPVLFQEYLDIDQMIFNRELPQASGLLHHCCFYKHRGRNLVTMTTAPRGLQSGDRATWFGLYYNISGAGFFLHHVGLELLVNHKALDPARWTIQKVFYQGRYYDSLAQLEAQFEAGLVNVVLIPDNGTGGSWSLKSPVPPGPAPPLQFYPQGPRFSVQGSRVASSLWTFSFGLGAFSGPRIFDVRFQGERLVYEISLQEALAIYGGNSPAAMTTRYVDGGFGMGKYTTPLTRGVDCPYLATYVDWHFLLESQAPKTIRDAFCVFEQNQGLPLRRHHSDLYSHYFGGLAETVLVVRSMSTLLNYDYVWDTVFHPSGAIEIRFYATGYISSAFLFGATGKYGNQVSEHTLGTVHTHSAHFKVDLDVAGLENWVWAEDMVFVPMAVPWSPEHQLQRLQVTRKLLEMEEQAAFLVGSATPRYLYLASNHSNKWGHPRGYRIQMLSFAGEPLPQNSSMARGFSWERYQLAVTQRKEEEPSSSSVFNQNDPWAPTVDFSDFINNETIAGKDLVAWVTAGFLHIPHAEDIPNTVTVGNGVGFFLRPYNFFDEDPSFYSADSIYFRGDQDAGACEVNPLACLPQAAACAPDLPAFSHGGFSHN
Assay: SSAO enzyme inhibition assay (benzylamine substrate; hydrogen peroxide/HRP-coupled or 14C aldehyde detection)
Format: biochemical
Conditions: human recombinant SSAO, RT, benzylamine as substrate; read-out: SSAO inhibitory activity IC50
Protocol: All primary assays were performed at RT. with purified recombinantly expressed human SSAO. Enzyme was prepared essentially as described in Ohman et al. (Protein Expression and Purification 46 (2006) 321 331). In addition, secondary- and selectivity assays were performed using SSAO prepared from various tissues or purified rat recombinant SSAO. The enzyme activity was assayed with benzylamine as substrate by measuring either benzaldehyde production, using ^14C-labeled substrate, or by utilizing the production of hydrogen peroxide in a horseradish peroxidase (HRP) coupled reaction. Briefly, test compounds were dissolved in dimethyl sulfoxide (DMSO) to a concentration of 10 mM. Dose-response measurements were assayed by either creating 1:10 serial dilutions in DMSO to produce a 7 point curve or by making 1:3 serial dilutions in DMSO to produce 11 point curves. The top concentrations were adjusted depending on the potency of the compounds and subsequent dilution in reaction buffer yielded a final DMSO concentration ≦2%.
In a horseradish peroxidase (HRP) coupled reaction, hydrogen peroxide oxidation of 10-acetyl-3,7-dihydroxyphenoxazine produced resorufin, which is a highly fluorescent compound (Zhout and Panchuk-Voloshina. Analytical Biochemistry 253 (1997) 169-174; Amplex® Red Hydrogen Peroxide/peroxidase Assay kit, Invitrogen A22188). Enzyme and compounds in 50 mM sodium phosphate, pH 7.4 were set to pre-incubate in flat-bottomed microtiter plates for approximately 15 minutes before initiating the reaction by addition of a mixture of HRP, benzylamine and Amplex reagent. Benzylamine concentration was fixed at a concentration corresponding to the Michaelis constant, determined using standard procedures. Fluorescence intensity was then measured at several time points during 1-2 hours, exciting at 544 nm and reading the emission at 590 nm. For the human SSAO assay final concentrations of the reagents in the assay wells were: SSAO enzyme 1 μg/ml, benzylamine 100 μM, Amplex reagent 20 μM, HRP 0.1 U/mL and varying concentrations of test compound. The inhibition was measured as % decrease of the signal compared to a control without inhibitor (only diluted DMSO). The background signal from a sample containing no SSAO enzyme was subtracted from all data points. Data was fitted to a four parameter logistic model and IC50 values were calculated using the GraphPad Prism 4 or XLfit 4 programs.
SSAO activity was assayed using 14C-labeled benzylamine and analysed by measuring radioactive benzaldehyde. In a white 96-well optiplate (Packard), 20 μL of diluted test compound was pre-incubated at RT. with 20 μL SSAO enzyme for approximately 15 minutes with continuous agitation. All dilutions were made with PBS. The reaction was initiated by adding 20 μL of the benzylamine substrate solution containing [7-14C] Benzylamine hydrochloride (CFA589, GE Healthcare). The plate was incubated for 1 hour as above after which the reaction was stopped by acidification (10 μL 1 M HCl). Then 90 μL Micro Scint-E solution (Perkin-Elmer) was added to each well and the plate was continuously mixed for 15 minutes. Phase separation occurred instantly and activity was read in a Topcount scintillation counter (Perkin-Elmer). In the final reaction well, the human recombinant SSAO concentration was 10 μg/ml. In order to optimize sensitivity, the substrate concentration was decreased as compared to the HRP coupled assay in order to get a higher fraction of radioactive product. In the human SSAO assay, benzylamine concentration was 40 μM (0.2 μCi/mL). Data was analysed as above.

Row | SMILES | IC50 [nM]
1 | Clc1ccc(-n2nc(C3CCN(Cc4cccnc4)CC3)c3ccncc32)cc1 [Example 30, 3-({4-[1-(4-Chlorophenyl)-1H-pyrazolo[3,4-c]pyridin-3-yl]piperidin-1-yl}methyl)pyridine] | 100 to 500
2 | Oc1cncc2c1c(C1CCNCC1)cn2-c1ccc(Cl)cc1 [Example 27, 1-(4-Chlorophenyl)-3-(piperidin-4-yl)-1H-pyrrolo[2,3-c]pyridin-4-ol] | < 100
3 | O=C(N1CCNCC1)N1CCC(c2cn(-c3ccc(Cl)cc3)c3cnccc23)CC1 [Example 8, 1-({4-[1-(4-Chlorophenyl)-1H-pyrrolo[2,3-c]pyridin-3-yl]piperidin-1-yl}carbonyl)piperazine] | < 100

Reference: patent publication US9150574B2, “Enzyme inhibitor compounds” (Proximagen Limited, priority 2011, dated 2015)
